32 sequences from the supplement of paper PMC11208160 can be followed below.

The nature of the series: recombinant barcode read abundance after kanamycin selection (control-corrected) (log10(CPM+1)); higher = more efficient recombination; sequences stand for … in AGTGCAGAGAAAATCGGCCAGTTTTCTCTGCCTGCAGTCCGCATGCCGT…AGATTTATGCAGCGGACTGCCTTTCTCCCAAAGTGATAAACCGGACAGTATCATGGACCGGTTTTCCCGGTAATCCGTATTTGCAAGGTTGGTTTCACT; site = the 11-nt target. In a few lines: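 Two replicates per condition were plated: chloramphenicol/ampicillin LB agar for the control, and chloramphenicol/ampicillin/kanamycin with 0.1 mM IPTG for selection. The pooled E. coli screen behind them paired targets with IS621 bridge RNA target-binding loops. Recombination efficiency is expressed from averaged, control-corrected barcode counts per million at recombinant junctions, as log10(CPM+1).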
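Further: IS621 recombinase and bridge RNA in Escherichia coli cells.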

For the sequence “CTGAGTTCTTGGGTTCTAACCTGTTGCCA (site CTGAGTCCTTG)”, the “recombinant barcode read abundance (log10)” value amounted to 0.269.
Turning to “CTGAGTTCTTGGGTTCTAACCTGTTGCCA (site CTGAGTTCTTG)”, the “recombinant barcode read abundance (log10)” value is 0.0274.
For “CTGATCCCTTGGGTTCTAACCTGTTGCGG (site CTGATCCCTCC)”, the “recombinant barcode read abundance (log10)” value came out at 1.05.
Take “CTGATCCCTTGGGTTCTAACCTGTTGCGG (site CTGCTCCCTCC)”: the “recombinant barcode read abundance (log10)” value was 0.
As for “CTGATCCCTTGGGTTCTAACCTGTTGCGG (site CTGGTCCCTCC)”, the figure is 0.136; as for “CTGATCCCTTGGGTTCTAACCTGTTGCGG (site CTGTTCCCTCC)”, 0.0812.
For “CTGATTACTTGGGTTCTAACCTGTTGCCT (site CTGATAACTAG)”, the “recombinant barcode read abundance (log10)” value came to 0.0337.
The figure for “CTGATTACTTGGGTTCTAACCTGTTGCCT (site CTGATCACTAG)” is 0.0584.
As for “CTGATTACTTGGGTTCTAACCTGTTGCCT (site CTGATGACTAG)”, the figure is 0.0346; as for “CTGATTACTTGGGTTCTAACCTGTTGCCT (site CTGATTACTAG)”, 0.21; as for “CTGCAAGCTTGGGTTCTAACCTGTTGCCT (site CTACAAGCTAG)”, 1.29.
“CTGCAAGCTTGGGTTCTAACCTGTTGCCT (site CTCCAAGCTAG)”: the “recombinant barcode read abundance (log10)” value was 0.218.
Regarding “CTGCAAGCTTGGGTTCTAACCTGTTGCCT (site CTGCAAGCTAG)”, the “recombinant barcode read abundance (log10)” value was found to be 0.995.
For the sequence “CTGCAAGCTTGGGTTCTAACCTGTTGCCT (site CTTCAAGCTAG)”, the “recombinant barcode read abundance (log10)” value was 0.854.
On to “CTGGACCCTTGGGTTCTAACCTGTTGCCG (site CTGGACCCTCG)”, for which the “recombinant barcode read abundance (log10)” value came to 1.91.
The figure for “CTGGACCCTTGGGTTCTAACCTGTTGCCG (site GATTCGACTAC)” is 0.0386; for “CTGGCAGCTTGGGTTCTAACCTGTTGCCT (site ACAAACCCTTA)” it is 0.241; for “CTGGCAGCTTGGGTTCTAACCTGTTGCCT (site CTGGCAGCTAG)” it is 0.445.
Consider “CTGGCGCCTTGGGTTCTAACCTGTTGCAT (site CTGGCGCCTAT)”, for which the “recombinant barcode read abundance (log10)” value was 0.908.
In the case of “CTGGCGCCTTGGGTTCTAACCTGTTGCAT (site TCTCGAGCTTC)”, the “recombinant barcode read abundance (log10)” value came to 0.0909.
For the sequence “CTGGCTCCTTGGGTTCTAACCTGTTGCTT (site CTGGCTCCTAA)”, the “recombinant barcode read abundance (log10)” value was determined as 0.227.
As for “CTGGCTCCTTGGGTTCTAACCTGTTGCTT (site CTGGTTCCTAG)”, the figure is 0.0218.
As for “CTGGGGTCTTGGGTTCTAACCTGTTGCTT (site CTGGGGTCTAA)”, the figure is 2.43.
For “CTGGGGTCTTGGGTTCTAACCTGTTGCTT (site GACTAAGCTCC)”, the “recombinant barcode read abundance (log10)” value was 0.105.
The figure for “CTGGTGCCTTGGGTTCTAACCTGTTGCCT (site CAGGTGCCTAG)” is 0.808; for “CTGGTGCCTTGGGTTCTAACCTGTTGCCT (site CCGGTGCCTAG)” it is 0.116; for “CTGGTGCCTTGGGTTCTAACCTGTTGCCT (site CGGGTGCCTAG)” it is 0.248.
As to “CTGGTGCCTTGGGTTCTAACCTGTTGCCT (site CTGGTGCCTAG)”, the “recombinant barcode read abundance (log10)” value turned out to be 1.46.
On to “CTGTAGCCTTGGGTTCTAACCTGTTGCTG (site CTGTAGCCTCA)”, for which the “recombinant barcode read abundance (log10)” value stood at 0.578.
As for “CTGTAGCCTTGGGTTCTAACCTGTTGCTG (site CTGTAGGCTTA)”, the “recombinant barcode read abundance (log10)” value was 0.0376.
Consider “CTGTAGGCTTGGGTTCTAACCTGTTGCTA (site CTGTAGCCTCA)”, for which the “recombinant barcode read abundance (log10)” value was found to be 0.136.
As for “CTGTAGGCTTGGGTTCTAACCTGTTGCTA (site CTGTAGGCTTA)”, the figure is 0.716.
